Experimental data reported in PMC6225212, “Synthesis and Pharmacological Evaluation of Novel Silodosin-Based Arylsulfonamide Derivatives as α1A/α1D-Adrenergic Receptor Antagonist with Potential Uroselective Profile” (Molecules : A Journal of Synthetic Chemistry and Natural …, 2018).

Key:
α1D-ARs = target: T1, α1D-ARs (Homo sapiens, UniProt P25100); experiment: Intrinsic activity at α1D-ARs, aequorin calcium mobilization luminescence; assay type: cell-based; parameters: key to α1D Profile: ANT—antagonist; AGO—agonist; details: for IC50: antagonist mode, three independent experiments; for EC50: antagonist, as worded in abstract and text, read-out: EC50(α1D); for α1D Profile: functional profile
T1 sequence (P25100 1-572): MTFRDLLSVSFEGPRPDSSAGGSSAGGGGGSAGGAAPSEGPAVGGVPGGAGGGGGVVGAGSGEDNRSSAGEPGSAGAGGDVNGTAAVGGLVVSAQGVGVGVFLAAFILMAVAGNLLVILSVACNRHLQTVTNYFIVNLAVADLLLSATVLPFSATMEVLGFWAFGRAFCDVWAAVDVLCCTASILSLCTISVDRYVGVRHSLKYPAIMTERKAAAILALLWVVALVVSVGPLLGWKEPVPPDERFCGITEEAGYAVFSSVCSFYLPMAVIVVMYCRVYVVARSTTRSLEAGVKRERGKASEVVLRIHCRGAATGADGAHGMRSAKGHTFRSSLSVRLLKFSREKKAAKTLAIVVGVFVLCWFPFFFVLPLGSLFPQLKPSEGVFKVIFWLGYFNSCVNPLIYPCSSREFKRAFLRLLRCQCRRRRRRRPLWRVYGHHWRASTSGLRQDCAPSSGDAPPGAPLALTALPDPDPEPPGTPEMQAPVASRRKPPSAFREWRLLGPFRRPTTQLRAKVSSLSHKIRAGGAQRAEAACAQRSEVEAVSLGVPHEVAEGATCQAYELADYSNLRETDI
Protocol: The intrinsic activity at α1A-ARs of the selected compounds was assessed by fluorescence detection (Invitrogen, Thermo Fisher Scientific, Carlsbad, CA, USA) of β-lactamase reporter genes using a FRET-enabled substrate. The intrinsic activity at α1B-ARs and α1D-ARs was determined by luminescence detection (PerkinElmer, Zaventem, Belgium) of calcium mobilization using the recombinant-expressed jellyfish photoprotein (Aequorin).
Intrinsic activity assay to α1B- and α1D-ARs was performed according to the manufacturer of the ready-to-use cells with stable expression of the α1B-adrenoreceptors and α1D-adrenoreceptors, respectively (PerkinElmer, Zaventem, Belgium). For measurement, cells (frozen, ready to use) were thawed and resuspended in 10 mL of assay buffer containing 5 µM coelenterazine h. This cells suspension was put in a 10 mL Falcon tube, fixed onto a rotating heel, and incubated for overnight at rt in the dark (8 rpm; 45° angle). Cells were diluted with Assay Buffer to 5000 cells/20 µL. Agonistic ligands 2 × (50 µL/well), diluted in Assay Buffer, were prepared in ½ white polystyrene area plates, and the cell suspension was dispensed in 50 µL volume on the ligands using the injector. The light emitted was recorded for 20 s. Cells with antagonist were incubated for 15 min at room temperature. Thereafter, 50 µL of agonist (3 × EC80 final concentration) was injected into the mix of cells and antagonist and the light emitted was recorded for 20 s.

human 5-HT1A = target: T2, human 5-HT1A (Homo sapiens, UniProt P08908); experiment: Radioligand binding [3H]-8-OH-DPAT, membranes from CHO-K1 cells; details: ± SEM, two independent experiments
T2 construct: expressed in transfected cells; host or cells: CHO-K1
T2 sequence (P08908 1-422): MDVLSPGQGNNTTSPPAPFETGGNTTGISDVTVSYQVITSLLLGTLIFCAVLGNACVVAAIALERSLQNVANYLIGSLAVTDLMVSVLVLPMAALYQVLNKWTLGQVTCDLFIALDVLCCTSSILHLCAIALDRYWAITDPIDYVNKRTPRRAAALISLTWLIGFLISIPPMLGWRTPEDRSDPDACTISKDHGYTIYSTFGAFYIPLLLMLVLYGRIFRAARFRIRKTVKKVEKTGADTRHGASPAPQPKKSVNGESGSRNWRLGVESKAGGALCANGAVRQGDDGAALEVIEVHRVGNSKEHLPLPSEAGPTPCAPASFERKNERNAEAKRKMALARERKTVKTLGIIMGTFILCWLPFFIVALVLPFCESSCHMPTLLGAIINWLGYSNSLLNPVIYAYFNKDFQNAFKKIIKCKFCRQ
Protocol: Experiments were performed using membranes from CHO-K1 cells stably transfected with the human 5-HT1A and 5-HT7Rs according to the methods previously described.
Binding experiments were conducted in 96-well microplates in a total volume of 250 μL of appropriate buffers. The composition of the assay buffers was as follows: 50 mM Tris-HCl, 0.1 mM EDTA, 10 mM MgCl2. The reaction mix included 50 μL solution of test compound, 50 μL of radioligand, and 150 μL of diluted membranes. All assays were incubated for 1 h (5-HT1ARs) or 2 h (5-HT7Rs) at 37 °C. Radioactivity was counted in MicroBeta2 scintillation counter (PerkinElmer, Waltham, MA, USA). Nonspecific binding is defined with 10 µM of 5-HT and 10 µM of methiothepine in 5-HT1AR and 5-HT7R binding experiments, respectively. Each compound was tested in screening assay at two final concentrations of 10 µM and 1 µM.

[1] = In vitro metabolic stability in rat-liver microsomes (RLM); assay type: in vitro ADME; details: for Major Metabolic Pathway: RLM; for microsomal CLint at 10 μM / half-life at 10 μM: male, rat, rat liver microsomes, pH 7.4, RLM 0.2 mg/mL, compound 10 μM, 37 °C; for half-life at 10 μM: read-out: t½
Protocol: In vitro biotransformation assays of selected compounds 9 and 10 were performed using rat-liver microsomes (RLM), potassium-phosphate buffer, NADPH-regenerating system (NADP, glucose-6-phosphate, glucose-6-phosphate dehydrogenase), and levallorphan as internal standard, according to the previously published procedure. Compound I and the drug tamsulosin were used as reference standard. UPLC/MS analysis (Waters Corporation, Milford, MA, USA) was performed to determine the quantity of the starting material left in solution. The in vitro half-time (t1/2) for test compounds was determined from the slope of the linear regression of ln % parent compound remaining versus incubation time. The calculated t1/2 was incorporated into the following equation to obtain intrinsic clearance: (Clint) = (volume of incubation [µL]/protein in the incubation [mg]) × 0.693/t1/2.
Metabolic stability of tested compound was analyzed using incubation systems, composed of: tested compounds (10 μM), RLMs (microsomes from rat male liver, pooled; 0.2 mg/mL; Sigma Aldrich), NADPH-regenerating system (NADP+, glucose-6-phosphate and glucose-6-phosphate dehydrogenase in 100mM potassium buffer, pH 7.4; all from Sigma Aldrich), and potassium buffer, pH 7.4. […] Firstly, all samples contained incubation mixture (without NADPH-regenerating system) were preincubated in a thermoblock at 37 °C for 10 min. Then reaction was initiated by the addition of NADPH-regenerating system. In control samples NADPH-regenerating system was replaced with potassium buffer. Probes were incubated in thermoblock for 15 and 30 min at 37 °C. After addition of internal standard (levallorphan, 10 μM), the biotransformation process was stopped by addition of perchloric acid (69–72%, by volume). Next, samples were centrifuged (Centrifuge 5427 R, Eppendorf, Hamburg, Germany) and supernatants were analyzed using UPLC/MS (Waters Corporation). All experiments were run in duplicates. Half-life time was evaluated using a nonlinear regression model using Graph Pad Prism software (Graph Pad Software, La Jolla, San Diego, CA, USA) and intrinsic clearance was calculated from the equation Clint = (volume of incubation [μL]/protein in the incubation [mg]) ×∙0.693/t1/2 [33].

O=S(=O)(NCC1CCN(CCOc2ccccc2OCC(F)(F)F)CC1)c1cccc(Cl)c1F [Compound 9, 3-Chloro-2-fluoro-N-[(1-{2-[(2,2,2-trifluoroethoxy)phenoxy]ethyl}piperidin-4-yl)methyl]benzenesulfonamide]
IC50 (α1D-ARs): 1.1 nM | EC50 (α1D-ARs): 1.1 nM | α1D Profile (α1D-ARs): ANT | Ki (human 5-HT1A): 70 ± 3.5 nM | Major Metabolic Pathway [1]: N-dealkylation | microsomal CLint at 10 μM [1]: 67 µL/min/mg | half-life at 10 μM [1]: 51.5 min

O=S(=O)(NCC1CCN(CCOc2ccccc2OCC(F)(F)F)CC1)c1cc(Cl)ccc1F [Compound 10, 5-Chloro-2-fluoro-N-[(1-{2-[(2,2,2-trifluoroethoxy)phenoxy]ethyl}piperidin-4-yl)methyl]benzenesulfonamide]
IC50 (α1D-ARs): 2.7 nM | EC50 (α1D-ARs): 1.1 to 2.7 nM | α1D Profile (α1D-ARs): ANT | Ki (human 5-HT1A): 46 ± 0.6 nM | Major Metabolic Pathway [1]: N-dealkylation | microsomal CLint at 10 μM [1]: 91.7 µL/min/mg | half-life at 10 μM [1]: 37.8 min

CCOc1ccccc1OCCN[C@H](C)Cc1ccc(OC)c(S(N)(=O)=O)c1 [tamsulosin, reference compound]
IC50 (α1D-ARs): 0.005 nM | α1D Profile (α1D-ARs): ANT | Major Metabolic Pathway [1]: N-dealkylation | microsomal CLint at 10 μM [1]: 41 µL/min/mg | half-life at 10 μM [1]: 83 min
